# Source: patent US11478460B2, “Diaryl substituted 6,5-fused ring compounds as C5aR inhibitors” (CHEMOCENTRYX, INC., priority 2017, dated 2022)
# Molecular target: C5aR (Homo sapiens (Human), UniProt P21730)
# Experiment: Chemotaxis assay using U937 cells (C5aR mediated migration)
# Format: cell-based
# Conditions: read-out: Mig IC50
# Method in brief: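 U937 monocytic cells, pretreated overnight with 0.5 mM cyclic AMP, placed at 100,000 cells in the upper well above 5 μm polycarbonate filters. Lower well held 0.03 nM C5a plus compound in HBSS/1% FBS; after 1.5 h at 37° C migrated cells counted directly or by CyQuant, giving IC50.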
# Sequence of C5aR (P21730 whole entry): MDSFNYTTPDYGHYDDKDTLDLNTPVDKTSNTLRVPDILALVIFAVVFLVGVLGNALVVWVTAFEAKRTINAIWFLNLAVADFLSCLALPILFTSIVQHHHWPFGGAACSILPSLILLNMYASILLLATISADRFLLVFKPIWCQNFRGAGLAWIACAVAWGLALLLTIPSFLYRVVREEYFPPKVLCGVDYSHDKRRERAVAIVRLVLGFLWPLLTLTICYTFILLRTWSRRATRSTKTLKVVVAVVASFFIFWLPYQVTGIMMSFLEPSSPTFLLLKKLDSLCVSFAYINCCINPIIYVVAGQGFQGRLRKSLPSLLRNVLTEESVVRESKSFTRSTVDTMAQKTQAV
row,IC50,SMILES
1,≤ 5 nM,Cc1cccc(OCC(C)C)c1-n1nc2c(c1-c1ccc(NC(N)=O)c(F)c1)CN(C(C)CC(C)C)CC2 (stereo not drawn) [Example 1.239]
2,50 to 500 nM,CCOc1cccc(C)c1-n1nc2c(c1-c1ccc(N)cc1)CN(c1ccccc1C(C)C)CC2 [Example 1.479]
3,5 to 50 nM,Cc1cccc(OCC(C)C)c1-n1nc2c(c1-c1ccc(NC(N)=O)c(F)c1)CN(Cc1nccs1)CC2 [Example 1.234]
4,> 500 nM,Cc1cccc(OCC(C)C)c1-n1nc2c(c1-c1ccc(NC(N)=O)cc1)CN(C(=O)C1CCCCC1)CC2 [Example 1.425]
5,50 to 500 nM,Cc1cccc(CCC(C)C)c1-n1nc2c(c1-c1ccc(NC(N)=O)cc1)CN(C(=O)OC(C)(C)C)CC2 [Example 1.414]
6,> 500 nM,Cc1cccc(OCC(C)C)c1-n1nc2c(c1-c1ccc(NC(N)=O)cc1)CN(CC(C)(C)C)CC2(C)C [Example 1.260]
7,5 to 50 nM,Cc1cccc(CCC(C)C)c1-n1nc2c(c1-c1ccc(NC(N)=O)cc1)CN(CC(C)(C)C)CC2 [Example 1.336]
8,5 to 50 nM,CCc1cccc(CC)c1-n1nc2c(c1-c1ccc(NC(N)=O)c(F)c1)CN(C(C)CC(C)C)CC2 (stereo not drawn) [Example 1.215]
9,5 to 50 nM,CCc1cccc(CC)c1-n1nc2c(c1-c1ccc(NC(N)=O)cc1)CN(Cc1c(Cl)cccc1C(F)(F)F)CC2 [Example 1.297]
10,≤ 5 nM,Cc1cccc(OCC(C)C)c1-n1nc2c(c1-c1ccc(NC(N)=O)cc1)CN(Cc1ccc(F)cc1Cl)CC2 [Example 1.326]
11,> 500 nM,Cc1cccc(OCC(C)C)c1-n1nc2c(c1-c1ccc(NC(N)=O)c(C#N)c1)CN(c1ncc(C(F)(F)F)cc1F)CC2 [Example 1.226]

# More lines, now with the values behind:
row,SMILES,IC50
1,CCc1cccc(CC)c1-n1nc2c(c1-c1cc(F)c(NC(N)=O)cc1F)CN(Cc1ccc(C(F)(F)F)cc1Cl)C(C)(C)C2 [Example 1.035],≤ 5 nM
2,Cc1cccc(C)c1-n1nc2c(c1-c1cc(F)c(NC(N)=O)cc1F)CN(c1ncc(C3CC3)cc1F)CC2 [Example 1.089],≤ 5 nM
3,NC(=O)Nc1cc(F)c(-c2c3c(nn2-c2c(F)cccc2F)CCN(c2ncc(Cl)cc2Cl)C3)cc1F [Example 1.183],5 to 50 nM
4,Cc1cccc(C)c1-n1nc2c(c1-c1cc(F)c(NC(N)=O)cc1F)CN(c1ccc(C(F)(F)F)cc1F)CC2 [Example 1.122],≤ 5 nM
5,CCc1cccc(CC)c1-n1nc2c(c1-c1cc(F)c(NC(N)=O)cc1F)CN(c1ncc(Cl)cc1Cl)CC2 [Example 1.201],≤ 5 nM
6,CC[C@@H](c1ccccc1)N1CCc2nn(-c3c(C)cccc3C)c(-c3ccc(NC(N)=O)c(F)c3)c2C1 [Example 1.083],5 to 50 nM
7,Cc1cccc(OCC(C)C)c1-n1nc2c(c1-c1cc(F)c(NC(N)=O)cc1F)CN(C(C)(C)C#N)CC2 [Example 1.209],50 to 500 nM
8,Cc1cccc(OCC(C)C)c1-n1nc2c(c1-c1cc(F)c(NC(N)=O)cc1F)CN(c1ccnc(C(C)C)n1)CC2 [Example 1.139],≤ 5 nM
9,Cc1cccc(OCC(C)C)c1-n1nc2c(c1-c1cc(F)c(NC(N)=O)cc1F)CN(c1ncc(C3CC3)cc1F)CC2 [Example 1.172],≤ 5 nM
10,CCc1cccc(CC)c1-n1nc2c(c1-c1cc(F)c(NC(N)=O)cc1F)CN(Cc1cc(Cl)ccc1Cl)C(C)(C)C2 [Example 1.023],≤ 5 nM
11,CCc1cccc(CC)c1-n1nc2c(c1-c1cc(F)c(NC(N)=O)cc1F)CN(Cc1cc(C(F)(F)F)ccc1OC)CC2 [Example 1.037],≤ 5 nM
12,Cc1cccc(OCC(C)C)c1-n1nc2c(c1-c1cc(F)c(NC(N)=O)cc1F)CN(c1ncccn1)CC2 [Example 1.160],≤ 5 nM
13,Cc1cccc(OCC(C)C)c1-n1nc2c(c1-c1cc(F)c(NC(N)=O)cc1F)CN(c1ncncc1Cl)CC2 [Example 1.141],≤ 5 nM
14,COc1cc(NC(N)=O)c(F)cc1-c1c2c(nn1-c1c(C)cccc1C)CCN(c1ncc(Cl)cc1Cl)C2 [Example 1.123],≤ 5 nM
15,Cc1cccc(C)c1-n1nc2c(c1-c1cc(F)c(NC(N)=O)cc1F)CN(C(c1ccccc1)C(C)(C)O)CC2 (stereo not drawn) [Example 1.085],5 to 50 nM
16,CCc1cccc(CC)c1-n1nc2c(c1-c1cc(F)c(NC(N)=O)cc1F)CN(C(=O)C(C)C)C(C)(C)C2 [Example 1.032],≤ 5 nM
